Measurements: the supplement of paper PMC11451515

Test system: NOMO1
Test: cell viability relative to DMSO control; higher = less cytotoxic
Conditions: 48 h
In short: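 Viability was expressed as a per-plate percentage of DMSO wells, with cell-free wells as background. Leukemia cells (NOMO1 or SEM at 500 cells/well, P12-Ichikawa at 1000 cells/well) were adapted for at least four passages in each medium and seeded in 1536-well plates (5 μl). Library compounds in DMSO were pin-dosed over an 11-point threefold series from 47 μM to 0.79 nM, and CellTiter-Glo One luminescence was read after 48 h at 37°C.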

[1] = HPLM + 10% dialyzed FBS, 0.000781 µM
[2] = HPLM + 10% dialyzed FBS, 0.00234 µM
[3] = HPLM + 10% dialyzed FBS, 0.00702 µM
[4] = HPLM + 10% dialyzed FBS, 0.0211 µM
[5] = HPLM + 10% dialyzed FBS, 0.0632 µM
[6] = HPLM + 10% dialyzed FBS, 0.19 µM
[7] = HPLM + 10% dialyzed FBS, 0.569 µM
[8] = HPLM + 10% dialyzed FBS, 1.71 µM
[9] = HPLM + 10% dialyzed FBS, 5.12 µM
[10] = HPLM + 10% dialyzed FBS, 15.4 µM
[11] = HPLM + 10% dialyzed FBS, 46.1 µM
[12] = RPMI 5 mM glucose + 10% FBS, 0.000781 µM
[13] = RPMI 5 mM glucose + 10% FBS, 0.00234 µM
[14] = RPMI 5 mM glucose + 10% FBS, 0.00702 µM
[15] = RPMI 5 mM glucose + 10% FBS, 0.0211 µM
[16] = RPMI 5 mM glucose + 10% FBS, 0.0632 µM
[17] = RPMI 5 mM glucose + 10% FBS, 0.19 µM
[18] = RPMI 5 mM glucose + 10% FBS, 0.569 µM
[19] = RPMI 5 mM glucose + 10% FBS, 1.71 µM
[20] = RPMI 5 mM glucose + 10% FBS, 5.12 µM
[21] = RPMI 5 mM glucose + 10% FBS, 15.4 µM
[22] = RPMI 5 mM glucose + 10% FBS, 46.1 µM
[23] = RPMI 5 mM glucose + 10% dialyzed FBS, 0.000781 µM
[24] = RPMI 5 mM glucose + 10% dialyzed FBS, 0.00234 µM
[25] = RPMI 5 mM glucose + 10% dialyzed FBS, 0.00702 µM
[26] = RPMI 5 mM glucose + 10% dialyzed FBS, 0.0211 µM
[27] = RPMI 5 mM glucose + 10% dialyzed FBS, 0.0632 µM
[28] = RPMI 5 mM glucose + 10% dialyzed FBS, 0.19 µM
[29] = RPMI 5 mM glucose + 10% dialyzed FBS, 0.569 µM
[30] = RPMI 5 mM glucose + 10% dialyzed FBS, 1.71 µM
[31] = RPMI 5 mM glucose + 10% dialyzed FBS, 5.12 µM
[32] = RPMI 5 mM glucose + 10% dialyzed FBS, 15.4 µM
[33] = RPMI 5 mM glucose + 10% dialyzed FBS, 46.1 µM

For FC1=CC=C(CN2\C=C/C=C(/C(=O)N[C@@H](COC3=CC4=C(NC(=O)N4)C=C3)C5=CC=CC=C5)C2=O)C=C1F, the cell viability [1] was 86.7%, the cell viability [2] was 91.5% and the cell viability [3] was 97%. It also gave a cell viability [4] of 111%, a cell viability [5] of 103% and a cell viability [6] of 109%. For the same compound, the cell viability [7] was 97.6%, the cell viability [8] was 82.8% and the cell viability [9] was 64.6%. The cell viability [10] was 53.8%, the cell viability [11] was 43.5% and the cell viability [12] was 77.8%. It also gave a cell viability [13] of 80.1%, a cell viability [14] of 88.4% and a cell viability [15] of 79.9%. The cell viability [16] was 82.8%, the cell viability [17] was 96.6% and the cell viability [18] was 85.8%. The cell viability [19] was 86.8%, the cell viability [20] was 69.2% and the cell viability [21] was 60.3%. It also gave a cell viability [22] of 45.9%, a cell viability [23] of 88.7% and a cell viability [24] of 86.8%. For the same compound, the cell viability [25] was 97.7%, the cell viability [26] was 82.8% and the cell viability [27] was 84.4%. For the same compound, the cell viability [28] was 89.5%, the cell viability [29] was 82.3% and the cell viability [30] was 73.9%. The cell viability [31] was 63.3%, the cell viability [32] was 57.6% and the cell viability [33] was 44.3%.

CN(C)/[N+]([O-])=N/Oc1cc(ON[N+](=O)N2CCN(C(=O)c3cc(Cc4n[nH]c(=O)c5ccccc45)ccc3F)CC2)c([N+](=O)[O-])cc1[N+](=O)[O-] was tested, and the cell viability [1] was 101%, the cell viability [2] was 94.9% and the cell viability [3] was 100%. For the same compound, the cell viability [4] was 100%, the cell viability [5] was 115% and the cell viability [6] was 119%. The cell viability [7] was 109%, the cell viability [8] was 104% and the cell viability [9] was 102%. The cell viability [10] was 126%, the cell viability [11] was 117% and the cell viability [12] was 99.1%. It also gave a cell viability [13] of 97.4%, a cell viability [14] of 103% and a cell viability [15] of 114%. For the same compound, the cell viability [16] was 99.4%, the cell viability [17] was 102% and the cell viability [18] was 113%. The cell viability [19] was 122%, the cell viability [20] was 119% and the cell viability [21] was 101%. It also gave a cell viability [22] of 106%, a cell viability [23] of 93.9% and a cell viability [24] of 112%. It also gave a cell viability [25] of 101%, a cell viability [26] of 107% and a cell viability [27] of 118%. The cell viability [28] was 114%, the cell viability [29] was 103% and the cell viability [30] was 109%. For the same compound, the cell viability [31] was 123%, the cell viability [32] was 115% and the cell viability [33] was 120%.

With CCCNCC(O)COc1ccccc1C(=O)CCc1ccccc1 (stereo not given) the cell viability [1] was 82.6%, the cell viability [2] was 117% and the cell viability [3] was 113%. For the same compound, the cell viability [4] was 106%, the cell viability [5] was 121% and the cell viability [6] was 120%. The cell viability [7] was 123%, the cell viability [8] was 112% and the cell viability [9] was 124%. It also gave a cell viability [10] of 114%, a cell viability [11] of 96.9% and a cell viability [12] of 23.6%. For the same compound, the cell viability [13] was 106%, the cell viability [14] was 106% and the cell viability [15] was 117%. It also gave a cell viability [16] of 111%, a cell viability [17] of 109% and a cell viability [18] of 111%. The cell viability [19] was 122%, the cell viability [20] was 124% and the cell viability [21] was 111%. For the same compound, the cell viability [22] was 107%, the cell viability [23] was 108% and the cell viability [24] was 98.5%. It also gave a cell viability [25] of 124%, a cell viability [26] of 122% and a cell viability [27] of 124%. It also gave a cell viability [28] of 111%, a cell viability [29] of 111% and a cell viability [30] of 121%. For the same compound, the cell viability [31] was 118%, the cell viability [32] was 119% and the cell viability [33] was 103%.

Work on NC1CCC(Nc2nc(Nc3ccc(C(=O)N4CCCCC4)cc3)c3ncn(-c4cccc(F)c4)c3n2)CC1 (stereo not given) yielded a cell viability [1] of 114%, a cell viability [2] of 110% and a cell viability [3] of 119%. The cell viability [4] was 121%, the cell viability [5] was 132% and the cell viability [6] was 117%. For the same compound, the cell viability [7] was 129%, the cell viability [8] was 144% and the cell viability [9] was 107%. The cell viability [10] was 119%, the cell viability [11] was 154% and the cell viability [12] was 117%. The cell viability [13] was 113%, the cell viability [14] was 113% and the cell viability [15] was 126%. For the same compound, the cell viability [16] was 123%, the cell viability [17] was 124% and the cell viability [18] was 129%. For the same compound, the cell viability [19] was 107%, the cell viability [20] was 123% and the cell viability [21] was 128%. It also gave a cell viability [22] of 129%, a cell viability [23] of 118% and a cell viability [24] of 114%. For the same compound, the cell viability [25] was 133%, the cell viability [26] was 113% and the cell viability [27] was 121%. The cell viability [28] was 127%, the cell viability [29] was 127% and the cell viability [30] was 121%. The cell viability [31] was 125%, the cell viability [32] was 119% and the cell viability [33] was 123%.

CO[C@H]1/C=C/O[C@@]2(C)Oc3c(C)c(O)c4c(O)c(c(/C=N/N5CCN(C)CC5)c(O)c4c3C2=O)NC(=O)/C(C)=C\C=C\[C@H](C)[C@H](O)[C@@H](C)[C@@H](O)[C@@H](C)[C@H](OC(C)=O)[C@@H]1C was tested, and the cell viability [12] was 111%, the cell viability [13] was 123% and the cell viability [14] was 117%. It also gave a cell viability [15] of 127%, a cell viability [16] of 129% and a cell viability [17] of 118%. It also gave a cell viability [18] of 125%, a cell viability [19] of 123% and a cell viability [20] of 111%. It also gave a cell viability [21] of 102%, a cell viability [22] of 98.5% and a cell viability [23] of 118%. For the same compound, the cell viability [24] was 119%, the cell viability [25] was 129% and the cell viability [26] was 115%. It also gave a cell viability [27] of 122%, a cell viability [28] of 117% and a cell viability [29] of 104%. The cell viability [30] was 112%, the cell viability [31] was 119% and the cell viability [32] was 96.1%. For the same compound, the cell viability [33] was 79.6%.

Compound Cn1cnc(-c2cc3nccc(Oc4ccc(NC(=S)NC(=O)Cc5ccccc5)cc4F)c3s2)c1 has a cell viability [1] of 72.5%, a cell viability [2] of 93.2% and a cell viability [3] of 84.1%. The cell viability [4] was 92.4%, the cell viability [5] was 99.9% and the cell viability [6] was 97.1%. The cell viability [7] was 91.3%, the cell viability [8] was 86% and the cell viability [9] was 77.9%. The cell viability [10] was 62%, the cell viability [11] was 25.8% and the cell viability [12] was 77.3%. For the same compound, the cell viability [13] was 88.3%, the cell viability [14] was 77.4% and the cell viability [15] was 86.2%. It also gave a cell viability [16] of 89.8%, a cell viability [17] of 96.4% and a cell viability [18] of 89.6%. For the same compound, the cell viability [19] was 87.5%, the cell viability [20] was 82.2% and the cell viability [21] was 85.2%. It also gave a cell viability [22] of 20.5%, a cell viability [23] of 84% and a cell viability [24] of 81.2%. It also gave a cell viability [25] of 68.1%, a cell viability [26] of 86% and a cell viability [27] of 93.6%. For the same compound, the cell viability [28] was 101%, the cell viability [29] was 83% and the cell viability [30] was 90%. It also gave a cell viability [31] of 86.1%, a cell viability [32] of 88.1% and a cell viability [33] of 26.7%.

For CCCC1=N[N](C)C2=C1\N=C(/NC2=O)C3=CC(=CC=C3OCC)[S+]([O-])(=O)N4CCN(C)CC4, the cell viability [1] was 85.1%, the cell viability [2] was 83.9% and the cell viability [3] was 81.6%. It also gave a cell viability [4] of 83.7%, a cell viability [5] of 86.1% and a cell viability [6] of 87.9%. It also gave a cell viability [7] of 98.8%, a cell viability [8] of 82.4% and a cell viability [9] of 81.1%. The cell viability [10] was 83.6%, the cell viability [11] was 52.8% and the cell viability [12] was 79.5%. The cell viability [13] was 92.9%, the cell viability [14] was 77.4% and the cell viability [15] was 81.6%. For the same compound, the cell viability [16] was 76%, the cell viability [17] was 90.2% and the cell viability [18] was 72%. The cell viability [19] was 83.7%, the cell viability [20] was 77.3% and the cell viability [21] was 79.3%. It also gave a cell viability [22] of 76.9%, a cell viability [23] of 94.4% and a cell viability [24] of 88%. It also gave a cell viability [25] of 91.9%, a cell viability [26] of 84.5% and a cell viability [27] of 72.3%. For the same compound, the cell viability [28] was 96%, the cell viability [29] was 82.3% and the cell viability [30] was 77.1%. The cell viability [31] was 77.4%, the cell viability [32] was 85.2% and the cell viability [33] was 80.8%.
